Experimental data as given in US20070244007A1, “Cis-Alkoxyspiro-Substituted Tetramic Acid Derivatives” (BAYER CROPSCIENCE AG, priority 2004, published 2007).

Tests used:
Format in all cases: in vivo
Summer barley [1] = assay: Container trials with cereals outdoors, post-emergence, Mefenpyr in tank mix; settings: 120 g of a.i./ha, without safener
Description: (§1) 1. Herbicidal Post-Emergence Action
(§2) Seeds of monocotyledonous and dicotyledonous weed and crop plants are placed in sandy loam in wood fibre pots or in plastic pots, covered with soil and cultivated in a greenhouse, during the vegetation period also outdoors outside of the greenhouse, under good growth conditions. 2-3 weeks after sowing, the test plants are treated at the one- to three-leaf stage. The test compounds, formulated as wettable powders (WP) or emulsifiable concentrates (EC) are, in various dosages with a water application rate of 300 l/ha (converted), with wetting agent (0.2 to 0.3%) added, sprayed onto the plants and the surface of the soil. 3-4 weeks after the treatment of the test plants, the effect of the preparations is rated visually in comparison to untreated controls (herbicidal effect in per cent (%): 100% effect=the plants have died, 0% effect=like control plants).
(§3) If it is additionally to be tested whether safeners can improve the plant compatibility of test substances in the case of crop plants, the following options are used for applying the safener: • seeds of the crop plants are, before sowing, dressed with the safener substance (the amount of safener is stated in per cent, based on the weight of the seed) • before the application of the test substances, the crop plants are sprayed with the safener at a certain application rate per hectar (usually 1 day before the application of the test substances) • the safener is applied together with the test substance as a tank mix (the amount of safener is stated in g/ha or as a ratio, based on the herbicide).
(§4) By comparing the effect of test substances on crop plants with or without safener treatment, it is possible to assess the effect of the safener substance.
(§5) Container Trials with Cereals Outdoors (Outside the Greenhouse/“Bird Cage”) Mefenpyr in Tank Mix

Summer wheat = assay: as above; settings: 120 g of a.i./ha, without safener
Description: as §1, §2, §3, §4, §5

Summer barley [2] = assay: Container trials with cereals in the greenhouse, post-emergence, Mefenpyr applied 1 day prior to herbicide; settings: 50 g of a.i./ha, without safener
Description: as §1
as §2, with “plants). […]” for “plants).”

Meloidogyne incognita = assay: Meloidogyne Test (nematicidal action, gall formation on lettuce roots); settings: 20 ppm active compound; 100% = no galls
Description: To produce a suitable preparation of active compound, 1 part by weight of active compound is mixed with the stated amounts of solvent and emulsifier, and the concentrate is diluted with water to the desired concentration.
Vessels are filled with sand, solution of active compound, Meloidogyne incognita egg/larvae suspension and lettuce seeds. The lettuce seeds germinate and the plants develop. On the roots, the galls develop.
After the desired period of time, the nematicidal action is determined in % by the formation of galls. 100% means that no galls have been found; 0% means that the number of galls on the treated plants corresponds to that of the untreated control.

[3] = test system: green peach aphid (Myzus persicae); assay: Myzus Test (spray treatment); settings: 100 g/ha, Chinese cabbage discs
Description: (§6) To produce a suitable preparation of active compound, 1 part by weight of active compound is mixed with the stated amounts of solvents and emulsifier, and the concentrate is diluted with emulsifier-containing water to the desired concentration.
Discs of Chinese cabbage (Brassica pekinensis) which are infested by all stages of the green peach aphid (Myzus persicae) are sprayed with a preparation of active compound of the desired concentration.
After the desired period of time, the activity in % is determined. 100% means that all aphids have been killed; 0% means that none of the aphids have been killed.

[4] = test system: larvae of the mustard beetle (Phaedon cochleariae); assay: Phaedon Test (spray treatment); settings: 100 g/ha, Chinese cabbage discs
Description: [[[…]]] To produce a suitable preparation of active compound, 1 part by weight of active compound is mixed with the stated amounts of solvents and emulsifier, and the concentrate is diluted with emulsifier-containing water to the desired concentration. Discs of Chinese cabbage (Brassica pekinensis) are sprayed with a preparation of active compound of the desired concentration and, after they have dried, populated with larvae of the mustard beetle (Phaedon cochleariae).

[5] = test system: greenhouse red spider mite (Tetranychus urticae); assay: Tetranychus Test (OP-resistant/spray treatment); settings: 100 g/ha; bean leaf discs, spray, OP-resistant
Description: as §6
Discs of bean leaves (Phaseolus vulgaris) which are infested by all stages of the greenhouse red spider mite (Tetranychus urticae) are sprayed with a preparation of active compound of the desired concentration.
After the desired period of time, the activity in % is determined. 100% means that all spider mites have been killed; 0% means that none of the spider mites have been killed.

Agropyron [6] = assay: Herbicidal pre-emergence action, greenhouse; settings: 320 g a.i./ha, 3 weeks
Source text: (§7) 1. Herbicidal Pre-Emergence Action
(§8) Seeds of monocotyledonous and dicotyledonous weed and crop plants are placed into sandy loam in wood fibre pots and covered with soil. The test compounds, formulated in the form of wettable powders (WP), are then, in various dosages as aqueous suspension with a water application rate of 600 l/ha (converted), with 0.2% of wetting agent added, applied to the surface of the covering soil.
(§9) After the treatment, the pots are placed in a greenhouse and kept under good growth conditions for the test plants. The visual assessment of the emergence damage on the test plants is carried out after a trial period of 3 weeks by comparison with untreated plants (herbicidal effect in per cent (%): 100% effect=the plants have died, 0% effect=like control plants).

Alopecurus [7] = assay: Herbicidal pre-emergence action, greenhouse; settings: 320 g a.i./ha, 3 weeks
Source text: as §7, §8, §9

Avena [8] = assay: Herbicidal pre-emergence action, greenhouse; settings: 320 g a.i./ha, 3 weeks
Source text: as §7, §8, §9

Lolium [9] = assay: Herbicidal pre-emergence action, greenhouse; settings: 320 g a.i./ha, 3 weeks
Source text: as §7, §8, §9

Setaria [10] = assay: Herbicidal pre-emergence action, greenhouse; settings: 320 g a.i./ha, 3 weeks
Source text: as §7, §8, §9

Sugar-beets [11] = assay: Herbicidal pre-emergence action, greenhouse; settings: 320 g a.i./ha, 3 weeks
Source text: as §7, §8, §9

Agropyron [12] = assay: Herbicidal post-emergence action, greenhouse; settings: 320 g a.i./ha, about 3 weeks
Description: (§10) 2. Herbicidal Post-Emergence Action
(§11) Seeds of monocotyledonous and dicotyledonous weed and crop plants are placed into sandy loam in wood fibre pots, covered with soil and cultivated in a greenhouse under good growth conditions. 2-3 weeks after sowing, the test plants are treated at the one-leaf stage. The test compounds, formulated as wettable powders (WP), are, in various dosages with a water application rate of 600 l/ha (converted), with 0.2% of wetting agent added, sprayed onto the green parts of the plants. After the test plants were kept in the greenhouse under optimum growth conditions for about 3 weeks, the effect of the preparations is rated visually in comparison to untreated controls (herbicidal effect in per cent (%): 100% effect=the plants have died, 0% effect=like control plants).

Alopecurus [13] = assay: Herbicidal post-emergence action, greenhouse; settings: 320 g a.i./ha, about 3 weeks
Description: as §10, §11

Avena [14] = assay: Herbicidal post-emergence action, greenhouse; settings: 320 g a.i./ha, about 3 weeks
Description: as §10, §11

Lolium [15] = assay: Herbicidal post-emergence action, greenhouse; settings: 320 g a.i./ha, about 3 weeks
Description: as §10, §11

Setaria [16] = assay: Herbicidal post-emergence action, greenhouse; settings: 320 g a.i./ha, about 3 weeks
Description: as §10, §11

Sugar-beets [17] = assay: Herbicidal post-emergence action, greenhouse; settings: 320 g a.i./ha, about 3 weeks
Description: as §10, §11

In the case of `CCc1cc(Br)cc(C)c1C1=C(O)[C@]2(CC[C@H](OC)CC2)NC1=O` [Ex. I-a-1], the “Summer barley observed (%)” value (Summer barley [1]) is reported as 35% and the “Summer wheat observed (%)” value (Summer wheat) is reported as 30%.

For `CCc1cc(Br)cc(CC)c1C1=C(OC(=O)COC)[C@]2(CC[C@H](OC)CC2)NC1=O` [Ex. I-b-1], the “Summer barley observed (%)” value (Summer barley [2]) was 50%.

In the case of `CCOC(=O)OC1=C(c2c(C)cc(Br)cc2CC)C(=O)N[C@]12CC[C@@H](OC)CC2` [Ex. I-c-1], the “Effect in % after 14d” value (Meloidogyne incognita) is reported as 90%, the “Kill rate in % after 5d” value [3] is reported as 90% and the “Kill rate in % after 7d” value [4] is reported as 83%. The “Kill rate in % after 5d” value [5] was 70%, the “herbicidal effect, Agropyron” value (Agropyron [6]) was 100% and the “herbicidal effect, Alopecurus” value (Alopecurus [7]) was 100%. The “herbicidal effect, Avena” value (Avena [8]) was 97%, the “herbicidal effect, Lolium” value (Lolium [9]) was 100% and the “herbicidal effect, Setaria” value (Setaria [10]) was 100%. For the same compound, the “herbicidal effect, Sugar-beets” value (Sugar-beets [11]) was 0%, the “herbicidal effect, Agropyron” value (Agropyron [12]) was 100% and the “herbicidal effect, Alopecurus” value (Alopecurus [13]) was 100%. The “herbicidal effect, Avena” value (Avena [14]) was 100%, the “herbicidal effect, Lolium” value (Lolium [15]) was 100% and the “herbicidal effect, Setaria” value (Setaria [16]) was 100%. The “herbicidal effect, Sugar-beets” value (Sugar-beets [17]) was 0%, the “Summer barley observed (%)” value (Summer barley [1]) was 35% and the “Summer wheat observed (%)” value (Summer wheat) was 20%.
